# According to patent US20210108198A1, “APPLICATION OF COMPOUND OR TRADITIONAL CHINESE MEDICINE EXTRACT IN PREPARATION OF NUCLEIC ACID DELIVERY AGENT AND RELATED PRODUCTS THEREOF” (INSTITUTE OF BASIC MEDICAL SCIENCES CHINESE ACADEMY OF …, priority 2017, published 2021):
# Entries after “also recorded” stand apart in the source; their conditions may differ.
# Experiments:
# [1] = test system: protein expression of the corresponding knockdown genes in A549 cells; assay: Western blot of knockdown genes after lipid-mediated siRNA delivery into A549 cells; format: cell-based, human; details: LAMP2, XPN2, Ssu72, CPSF4 or β-actin siRNA 400 nM; reverse evaporation method; FIG. 82
# Description: 3.3.1 MRC-5 cell (pulmonary embryonic fibroblast), and A549 cell (human lung adenocarcinoma cell) were cultured to logarithmic growth phase, and then plated into 12-well plates at a cell density of 6×10^5/1 mL medium/well; MRC-5 cells were cultured in Eagle's MEM medium (MEM, Gibco); A549 cells were cultured in Ham's F-12 medium (HyClone); followed by incubation overnight at 37° C., and the follow-up experiments were performed after the cells were attached to the walls.
# 4) Lipid nucleic acid mixture: the mixture of lipid and nucleic acid prepared from the step 2 were added into cells and mixed, and the final concentration of nucleic acid was 400 nM.
# 3.3.3 After 24 hours of treatment, the cells were stimulated with the stimulant (1 μg/mL poly (I:C) (P1530, Sigma-Aldrich) as double-stranded RNA viruses mimetics) or 3 ng/mL transforming growth factor TGFβ1 (Pepro Tech)). […]
# A549 cells = assay: Flow cytometry detection of the efficiency of nucleic acid delivery by lipid; format: cell-based, human; details: PGY-sRNA-6-FAM, boiling method
# Description: Experimental materials: A549 cells (purchased from the Cell Center of the Chinese Academy of Medical Sciences), FAM-sRNA (purchased from Ribobio Biotechnology Co., Ltd.), lipid No. 41, Accuri® C6 instrument (purchased from BD, USA).
# Experimental methods: PGY-sRNA-6-FAM was dissolved in 100 μl water, mixed with 4 μl lipid, and prepared by boiling method. Then the mixture was dropped into A549 cells, and after 6 hours of co-incubation, the samples were collected for detection as follows: firstly wash three times with PBS, then digest with trypsin for 3 minutes and remove trypsin, wash with PBS again and then blow down the cells. The detection was performed using Accuri® C6 instrument.
# Experimental Method: PGY-sRNA-6-FAM was dissolved in 100 μl water, and mixed with 4 μl lipid, and prepared into lipid-sRNA mixture by boiling method. Then, the mixture was dropped into A549 cells, and after 6 hours of co-incubation, the samples were collected and washed three times with PBS, then digested with trypsin into single cells, washed with re-suspended with PBS and then blown down for Accuri® C6 instrument detection.
# Experimental Method: FAM-sRNA was dissolved in 100 μl water, and mixed with 4 μl lipid, prepared by boiling method. Then, the lipid-sRNA mixture was dropped into A549 cells, and after 6 hours of co-incubation, the samples were collected and washed three times with PBS, then digested into single cells with trypsin, re-suspended with PBS and then blown down for Accuri® C6 instrument detection.
# MRC-5 cell = assay: RT-qPCR detection of nucleic acid delivered by lipid into MRC-5 cells; format: cell-based; details: RNA 100 nM
# Description: 3.1 NCI-N87 cell (gastric cancer cell), MRC-5 cell (lung fibroblast), A549 cell (lung cancer cell) were cultured to logarithmic growth phase, and then plated to a six-well plate at cell density of 1×10^6/2 mL medium/well; MRC-5 cell was cultured in Eagle's MEM medium (MEM, Gibco); A549 cell was cultured in Ham's F-12 medium (HyClone); NCI-N87 cell was cultured in RPMI-1640 medium (HyClone); followed by incubation overnight at 37° C., and the follow-up experiments were performed after the cells were attached to the walls.
# 3.3 After co-incubation with the small RNA for 3 hours, the cells were washed 2-3 times with PBS. The cells were harvested with TRIzol lysis buffer, and the total RNA was extracted. The abundance of small RNA that entered cells was detected by RT-qPCR, and the localization of RNA was detected by fluorescence in situ hybridization; protocols of each detection method were as follows:
# 3.3.2 RT-qPCR Detection of Small RNA (SYBR Green Dye Method)
# The stem-loop primer used in the reverse transcription process was synthesized by Beijing Tsingke Biotechnology Co., Ltd. (U6 RT primer: […] ATG (SEQ ID NO: 21); HJT-sRNA-m7 RT stem-loop primer: […] AA (SEQ ID NO: 22)).
# Both the forward and reverse primers of the amplification reaction were designed and synthesized by Beijing Tsingke Biotechnology Co., Ltd. (U6 F Primer: […] (SEQ ID NO: 23), U6 R Primer: […] (SEQ ID NO: 24), HJT-sRNA-m7 F Primer: […] (SEQ ID NO: 25), HJT-sRNA-m7 R Primer: […] (SEQ ID NO: 26)).
# 3) The relative expression level was calculated by 2-ΔCt method.
# 3.1.3 After co-incubation with cells for 12-24 hours, the cells were washed twice with PBS. The cells were harvested with TRIzol lysis buffer (purchased from Sigma-Aldrich), and total RNA was extracted.
# [2] = 4 μl lipid, 6 hours of co-incubation
smiles,measurement,setting,value
"CCCCCCCCCCCCCCCCCCC[C@@H](O)[C@@H](N)CO [No. 41, Sphinganine (d22:0)]",protein knockdown effect (Western blot),[1],significantly higher than the inhibitory effect of HJT-sRNA-m7 mediated by RNAiMAX
same,efficiency in delivering PGY-sRNA-6 double-stranded RNA (flow cytometry),A549 cells; [2],96.7%
same,efficiency in delivering PGY-sRNA-6 single-stranded RNA (flow cytometry),A549 cells; [2],94.1%
same,"efficiency of nucleic acid delivery by flow cytometry, in words",A549 cells; 6 hours,could efficiently deliver single-stranded and double-stranded nucleic acids into A549 cells
same,delivery of double-stranded HJT-sRNA-m7 by single lipid (real-time PCR),MRC-5 cell; boiling (heating) method,delivered HJT-sRNA-m7 double-stranded RNA into MRC-5 cells
same,delivery of single-stranded HJT-sRNA-m7 by single lipid (real-time PCR),"MRC-5 cell; boiling (heating) method, 12 hours (No. 37: 3 hours)",delivered HJT-sRNA-m7 single-stranded RNA into A549 and MRC-5 cells
same,delivery of double-stranded HJT-sRNA-m7 by single lipid (real-time PCR),MRC-5 cell; reverse evaporation method,delivered HJT-sRNA-m7 double-stranded RNA into MRC-5 cells; also recorded: significantly higher than that of RNAiMAX
